PMC8041433 (Environmental Health Perspectives, 2021)
“And” between values parts separate entries of the source, which are not always exact repeats. Equal values may be shown once. Where a name gives a salt, the structure may show the parent alone. Read-outs that look alike come from different tables or passages of the source.

Legend:
recombinant human AChE [1] = molecular target: T1, recombinant human AChE (Homo sapiens, UniProt P22303); for IR or R: key: Reversible (R); Irreversible (IR); ND, not detected in enzyme-based AChE inhibition assay from current study
recombinant human AChE [2] = molecular target: T1, recombinant human AChE; assay: biochemical
recombinant human AChE [3] = molecular target: T1, recombinant human AChE; assay: biochemical; type: biochemical; settings: for AC50: AC50 (uM)
recombinant human AChE [4] = molecular target: T1, recombinant human AChE; assay: biochemical; remark: listed apart in the source
[5] = molecular target: AChE in neural stem cells (Homo sapiens, UniProt P22303); assay: cell-based
[6] = molecular target: AChE in SH-SY5Y spheroids (Homo sapiens, UniProt P22303); assay: cell-based; settings: potency (IC50)
AChE in SH-SY5Y cells = AChE in SH-SY5Y cells (Homo sapiens, UniProt P22303); assay: cell-based
[7] = molecular target: AChE in neural stem cell spheroids (Homo sapiens, UniProt P22303); assay: cell-based; settings: for IC50: potency (IC50)
recombinant human AChE [8] = molecular target: T1, recombinant human AChE; assay: biochemical; remark: listed apart in the source
[9] = potency (IC50), Enzyme with microsomes
[10] = potency (IC50), SH-SY5Y cells monolayer
[11] = Neural stem cell spheroid (24 h)
[12] = Neural stem cell spheroid (48 h)

Chain of AChE in neural stem cells (P22303 32-614): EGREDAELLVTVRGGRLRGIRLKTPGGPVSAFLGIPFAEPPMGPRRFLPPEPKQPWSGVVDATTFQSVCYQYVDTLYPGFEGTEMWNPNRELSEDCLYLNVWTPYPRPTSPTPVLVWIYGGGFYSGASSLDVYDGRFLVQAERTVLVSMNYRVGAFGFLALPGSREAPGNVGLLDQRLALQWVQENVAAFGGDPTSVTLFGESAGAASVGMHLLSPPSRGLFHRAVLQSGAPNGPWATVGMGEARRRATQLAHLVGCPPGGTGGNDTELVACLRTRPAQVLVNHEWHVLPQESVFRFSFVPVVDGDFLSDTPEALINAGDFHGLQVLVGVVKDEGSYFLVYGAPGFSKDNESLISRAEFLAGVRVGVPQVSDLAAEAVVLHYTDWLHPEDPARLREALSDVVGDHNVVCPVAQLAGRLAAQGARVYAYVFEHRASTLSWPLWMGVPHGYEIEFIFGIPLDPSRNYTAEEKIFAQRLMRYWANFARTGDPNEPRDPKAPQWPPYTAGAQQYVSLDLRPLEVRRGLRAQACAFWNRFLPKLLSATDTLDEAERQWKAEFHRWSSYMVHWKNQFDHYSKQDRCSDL
Chain of AChE in neural stem cell spheroids (P22303 32-614): as above
Chain of AChE in SH-SY5Y cells (P22303 32-614): as above
T1 sequence (P22303 32-614): as above
Chain of AChE in SH-SY5Y spheroids (P22303 32-614): as above

Compound	CC-v2 (curve classes) (recombinant human AChE [1])	Efficacy (recombinant human AChE [1])	IC50 (recombinant human AChE [2]; [9]) [µM]	AC50 (recombinant human AChE [3])	CC-v2 (curve classes) (recombinant human AChE [4])	Efficacy (recombinant human AChE [4])	IC50 (recombinant human AChE [4]; potency (IC50), Enzyme) [µM]	IC50 [5] [µM]	IC50 ([6]; SH-SY5Y spheroids (24 h)) [µM]	IC50 ([6]; SH-SY5Y spheroids (48 h)) [µM]	CC-v2 (curve classes) (AChE in SH-SY5Y cells)	IC50 (AChE in SH-SY5Y cells; IC50 (uM))	IC50 (AChE in SH-SY5Y cells; [10]) [µM]	IC50 [7, 11] [µM]	IC50 [7, 12] [µM]	IC50 (recombinant human AChE [8]) [µM]	IR or R (recombinant human AChE [3])	potency (IC50), Enzyme-based assay with heat-inactivated microsomes (recombinant human AChE [8])	other results
CCOP(=S)(OCC)Oc1cc(-c2ccccc2)on1 [Isoxathion]	-1.1	-99.076	2.11	55.9 µM (2×) and 49.8 µM (3×) and 44.4 µM (2×)	-3	-107.392	44.4	6.1	27	17.7	-2.1	63.3 µM and 79.6 µM	17	0.73	1.68	85.3 ± 5.56	–	–	–
CCc1ccc(C(=O)C(C)CN2CCCCC2)cc1.Cl (stereo not shown) [Eperisone hydrochloride, reference compound]	4	0	38.7	10.9 µM (3×) and 21.7 µM and 15.3 µM (2×) and 17.2 µM	-2.2	-46.815	27.4	19.3	–	–	-2.1	15.5 µM	25.3	15	13.3	40.1 ± 2.71	R	–	–
C=CC[N+]1([C@H]2C[C@H]3[C@@H]4CC[C@H]5C[C@H](OC(C)=O)[C@@H](N6CCCCC6)C[C@]5(C)[C@H]4CC[C@]3(C)[C@H]2OC(=O)CC)CCCCC1 [Rapacuronium bromide, reference compound]	4	0	26.3	–	-2.2	-53.371	22.6	5.27	8.24	22.6	-2.1	27.5 µM and 30.9 µM and 34.7 µM	16	3.64	1.37	26.3 ± 1.71	R	–	AC50 (recombinant human AChE [3]; activity_5): 21.7 µM and 19.3 µM; AC50 (recombinant human AChE [3]; activity_10): 13.7 µM and 21.7 µM and 19.3 µM; AC50 (recombinant human AChE [3]; activity_60): 21.7 µM and 38.5 µM and 19.3 µM; IC50 (recombinant human AChE [4]; IC50 (uM)): 30.9 µM
CCOP(=S)(OCC)SCSC(C)(C)C [Terbufos]	-2.1	–	4.27	–	4	0	–	2.31	2.19	35.4	–	89.4 µM	–	1.83	2.75	–	–	Inactive	IC50 (recombinant human AChE [2]; IC50 (uM)): 56.4 µM and 40.2 µM; AChE inhibition (result in words) (recombinant human AChE [4]): did not show effects; potency (IC50), Enzyme (recombinant human AChE [4]): Inactive; potency (IC50), SH-SY5Y cells monolayer (AChE in SH-SY5Y cells): Inactive
CCOP(=S)(OCC)Oc1ccc2c(C)c(Cl)c(=O)oc2c1 [Coumaphos]	–	–	5.51	24.3 µM and 27.3 µM	4 and -2.2 and -2.1	–	–	22.6	27.1	20.6	4 and -1.1 and -2.1	12.6 µM and 22.7 µM and 22.4 µM and 28.6 µM and 17.8 µM and 12.8 µM	–	21.1	21.4	–	–	Inactive	AChE inhibition (result in words) (recombinant human AChE [4]): did not show effects; potency (IC50), Enzyme (recombinant human AChE [4]): Inactive; potency (IC50), SH-SY5Y cells monolayer (AChE in SH-SY5Y cells): Inactive
CCOP(=S)(OCC)Oc1cc(C)nc(C(C)C)n1 [Diazinon]	–	–	22.6 ± 1.52	6.85 µM and 30.6 µM and 10.9 µM and 24.3 µM	–	–	19.4 ± 2.22	0.41 ± 0.11	19 ± 11.8	20.1 ± 1.36	4 and -2.1 and -1.1	–	11.3 ± 1.44	0.04 ± 0.01	0.09 ± 0.02	–	–	Inactive	reversibility of AChE inhibition (result in words) (recombinant human AChE [3]): irreversibility
CN1C[C@H](CNC(=O)OCc2ccccc2)C[C@@H]2c3cccc4c3c(cn4C)C[C@H]21 [Metergoline, reference compound]	–	–	21.7	21.7 µM and 12.2 µM (3×) and 13.7 µM and 27.3 µM and 9.68 µM (2×) and 10.9 µM	–	–	5.46 ± 1.98	13.2 ± 0.85	1.73 ± 0.75	4.17 ± 0.27	–	3.47 µM and 5.5 µM	4.85	5.79 ± 1.63	5.8 ± 1.64	20.9 ± 1.36	–	–	–
COP(N)(=S)Oc1ccccc1C(=O)OC(C)C (stereo not shown) [Isocarbophos]	-1.1	-89.537	8.21	–	4	0	–	27.8	–	41.5	–	89.4 µM	54.3 ± 9.25	29.9	23.1	55.9	–	–	IC50 (recombinant human AChE [2]; IC50 (uM)): 2.83 µM; AChE inhibition (result in words) (recombinant human AChE [4]): did not show effects
CCOP(=S)(OCC)Oc1cnc2ccccc2n1 [Quinalphos]	–	–	1.77	–	–	–	55.9	7.48	29.4	46.2	-2.1 and 4	35.6 µM	46.4	1.64	2.94	36.8 ± 4.7	–	–	AC50 (recombinant human AChE [3]; activity_60): 49.8 µM and 62.7 µM
CCCCOc1ccc(C(=O)CCN2CCCCC2)cc1 [Dyclonine HCl, reference compound]	–	–	31 ± 6.49	27.3 µM (3×) and 30.6 µM (3×) and 19.3 µM and 34.3 µM	–	–	20.9 ± 1.36	21.8 ± 2.5	17.4 ± 3.65	23.5 ± 3.24	–	–	20.2 ± 2.57	16.3 ± 7.64	9.18 ± 9.47	26.8 ± 10.1	R	–	–
CN1CCCC(n2nc(Cc3ccc(Cl)cc3)c3ccccc3c2=O)CC1 (stereo not shown) [Azelastine (hydrochloride), reference compound]	–	–	27.4	27.3 µM (3×) and 24.3 µM (2×) and 30.6 µM (2×)	–	–	25.4	22.6	13.8	19.3	–	–	20.9	–	4.45	36.6 ± 10.3	R	–	potency (IC50), Neural stem cell spheroid (24 h) [7]: Inactive
[H]/N=C(\N/C(=N/[H])NCCCCCCNC(=N)NC(=N)Nc1ccc(Cl)cc1)Nc1ccc(Cl)cc1 [Chlorhexidine diacetate, reference compound]	4	0	–	78.5 µM	-2.1	-106.259	54.6	32.5	36.1	41	-2.1	56.1 µM and 70.6 µM	70.9	8.31	9.21	–	R	Inactive	potency (IC50), Enzyme with microsomes (recombinant human AChE [1]): Inactive; IC50 (recombinant human AChE [4]; IC50 (uM)): 50 µM
